Laboratory results: patent publication US11166944B2 (AI Therapeutics, priority 2014, dated 2021)

Legend:
[1] = system: renal clear cell carcinoma cell line RCC-JF; test: Antiproliferative single treatment study (CellTiterGlo, 120 h); format: cell-based; settings: read-out: IC50 (Avg., n=2)
Procedure: (§1) All drug dilutions were made up as a 2× stock and 50 μL added to appropriate wells. Cells were treated for 120 h before viability was assessed using CellTiterGlo® (Promega) where the relative luminescence of untreated cells was set to 100% viability and each drug concentration expressed as a percentage of untreated cells. EC50 values were determined using GraphPad Prism (GraphPad Software, Inc). Briefly, raw data was log transformed and then analyzed using nonlinear regression (curve fit) where the data were constrained (bottom=0, top=100).

[2] = system: renal clear cell carcinoma cell line 769-P; test: as above; format: cell-based; settings: Homo sapiens, read-out: IC50 (Avg., n=2)
Procedure: as §1

[3] = system: renal clear cell carcinoma cell line A704; test: as above; format: cell-based; settings: Homo sapiens, A704, 120 h, read-out: IC50 (Avg., n=2)
Procedure: as §1

[4] = system: renal clear cell carcinoma cell line 786-O; test: as above; format: cell-based; settings: Homo sapiens, 786-0, read-out: IC50 (Avg., n=2)
Procedure: as §1

[5] = system: renal clear cell carcinoma cell line RCC-JW; test: as above; format: cell-based; settings: read-out: IC50 (Avg., n=2)
Procedure: as §1

[6] = system: renal clear cell carcinoma cell line RCC-ER; test: as above; format: cell-based; settings: read-out: IC50 (Avg., n=2)
Procedure: as §1

[7] = system: renal clear cell carcinoma cell line RCC-FG2; test: as above; format: cell-based; settings: read-out: IC50 (Avg., n=2); RCC-FG2, 120 h
Procedure: as §1

[8] = system: renal clear cell carcinoma cell line RCC-MF; test: as above; format: cell-based; settings: read-out: IC50 (Avg., n=2)
Procedure: as §1

[9] = target: T1, Vac14 (Homo sapiens, UniProt Q08AM6); test: Chemical capture mass spectrometry (CCMS) in H4 whole cell lysate; format: binding; settings: apilimod as competitor ligand
T1 construct: endogenous in cells; host or cells: H4 human neuroglioma cells (whole cell lysate)
Procedure: This work was performed at Caprotec Bioanalytics GmbH, Berlin Germany. See Michaelis et al., J. Med. Chem., 55 3934-44 (2012) and references cited therein.
Capture conditions were optimized in whole cell lysate from H4 (human neuroglioma) cancer cells, e.g. minimization of non-specific interactions of the proteins with capture compounds, concentration of reagents and proteins to obtain maximum binding of proteins and capture compounds, etc. […] These specific binders were further subjected to stringent data analysis criteria to determine specificity after unbiased data evaluation. Specific protein binders were ranked according to their fold change (FC) values in the capture experiments.

[10] = system: H4; test: Cell viability dose response; format: cell-based; settings: Homo sapiens, H4, Human neuroglioma
Description: (§2) 35 cell lines were identified as sensitive to apilimod-induced cytotoxicity.
(§3) Autophagy was quantified using the Cyto-ID Autophagy detection kit (Enzo) according to manufacturer's directions.
No statistically significant relationship was found with the sole exception of IL-23A (p=0.022). […] Importantly, the statistical significance of IL-23A expression in sensitive cancer lines appears to be driven entirely by just two colon cancer lines. Furthermore IL-23A expression is not a statistically significant predictor of sensitivity in Non-Hodgkin's B cell lymphoma.

[11] = system: H4 neuroglioma cell line; test: Autophagic vacuoles (Cyto-ID Autophagy detection kit); format: cell-based, human; settings: H4 cells, 72 hours of treatment
Description: as §3

[12] = system: THP-1; settings: cited from earlier work
[13] = system: normal lung fibroblasts; test: Cytotoxicity in normal cells; format: cell-based; settings: concentrations as high as 10 micromolar
Description: as §2

[14] = system: patients with rheumatoid arthritis; settings: Phase II; cited from earlier work
[15] = system: HELA; settings: cited from earlier work
[16] = system: U937; settings: cited from earlier work
[17] = system: peripheral blood mononuclear cells; settings: cited from earlier work
[18] = system: (TSC2−/−, p53−/−) MEF line; test: 10-point dose response viability (CellTiter-Glo, 72 hours); format: cell-based; settings: Mus musculus, average of two experiments
Description: (§4) See e.g., Zhang et al. J. Clin. Invest. 112, 1223-33, 2003. (2) ELT3-EV and ELT3-TSC2 lines were established from the ELT3 rat tumor cell line. The ELT3 line is an established rat tumor model for LAM/TSC. See e.g., Howe et al., Am. J. Path. 146, 1568-79, 1995. These cells harbor an inactivating mutation in TSC2, which leads to constitutive activation of the mTOR pathway. To develop an isogenic pair of cells ELT3 cells were infected with a retrovirus vector encoding the hygromycin antibiotic resistance gene (ELT3-EV) or the same retrovirus vector also encoding TSC2 (ELT3-TSC2). The ELT3-EV and ELT3-TSC2 line were then established by hygromycin selection. (3) TRI-AML102 and AML103 lines were established from a TSC2 null primary human AML sample provided by Dr. Elizabeth Henske (Fox Chase Cancer Center, Philadelphia, Pa.). The cells were infected with amphotropic retrovirus LXSN16E6E7 that encodes the HPV16 E6 and E7 open reading frames and neomycin resistance cassette. Cells were expanded and neomycin-selected. Individual clones were isolated and frozen down. The coding sequence for the human Telomerase gene (hTERT) with hygromycin resistance cassette (pLXSN hTERT-hyg plasmid) was stably expressed into a TSC2^−/− confirmed E6E7 AML clone using Fugene6 transfection reagent (Roche Applied Science, Indianapolis, Ind.). TRI-AML102 was generated by stable incorporation of a control zeomycin selection plasmid (pcDNA3.1-zeo), while TRI-AML103 expresses the human TSC2 cDNA pcDNA3.1-zeo plasmid. As a result of these engineering processes, both TRI102 and TRI103 are neomycin, hygromycin, and zeomycin resistant lines.
(§5) IC50 values were then calculated from the dose response curves using XLFIT (IDBS).

[19] = system: (TSC2+/−, p53−/−) MEF line; test: as above; format: cell-based; settings: Mus musculus; MEF TSC2+/− p53−/− as counterpart of TSC2−/− p53−/−; average of two experiments; read-out: IC50 TSC2 rescue (viability)
Description: as §4, §5

[20] = system: TRI-AML103 (TSC2 rescue AML) cells; test: as above; format: cell-based; settings: Homo sapiens; AML column, rescue line; average of two experiments
Description: as §4, §5

[21] = system: ELT3-EV cells; test: as above; format: cell-based; settings: Rattus norvegicus, average of two experiments, read-out: IC50 TSC2−/− (viability)
Description: as §4, §5

[22] = system: ELT3-TSC2 cells; test: as above; format: cell-based; settings: Rattus norvegicus; ELT3 rescue line; average of two experiments
Description: as §4, §5

[23] = system: MEF-EV (TSC2−/−) cells; test: as above; format: cell-based; settings: Mus musculus, average of two experiments
Description: as §4, §5

[24] = system: MEF-TSC2 (TSC2 rescue) cells; test: as above; format: cell-based; settings: Mus musculus; MEF TSC2 rescue line; average of two experiments
Description: as §4, §5

[25] = system: TRI-AML102 (TSC2 null AML) cells; test: as above; format: cell-based; settings: Homo sapiens; AML column; average of two experiments
Description: as §4, §5

[26] = system: Jurkat; settings: cited from earlier work

T1 sequence (Q08AM6 whole entry): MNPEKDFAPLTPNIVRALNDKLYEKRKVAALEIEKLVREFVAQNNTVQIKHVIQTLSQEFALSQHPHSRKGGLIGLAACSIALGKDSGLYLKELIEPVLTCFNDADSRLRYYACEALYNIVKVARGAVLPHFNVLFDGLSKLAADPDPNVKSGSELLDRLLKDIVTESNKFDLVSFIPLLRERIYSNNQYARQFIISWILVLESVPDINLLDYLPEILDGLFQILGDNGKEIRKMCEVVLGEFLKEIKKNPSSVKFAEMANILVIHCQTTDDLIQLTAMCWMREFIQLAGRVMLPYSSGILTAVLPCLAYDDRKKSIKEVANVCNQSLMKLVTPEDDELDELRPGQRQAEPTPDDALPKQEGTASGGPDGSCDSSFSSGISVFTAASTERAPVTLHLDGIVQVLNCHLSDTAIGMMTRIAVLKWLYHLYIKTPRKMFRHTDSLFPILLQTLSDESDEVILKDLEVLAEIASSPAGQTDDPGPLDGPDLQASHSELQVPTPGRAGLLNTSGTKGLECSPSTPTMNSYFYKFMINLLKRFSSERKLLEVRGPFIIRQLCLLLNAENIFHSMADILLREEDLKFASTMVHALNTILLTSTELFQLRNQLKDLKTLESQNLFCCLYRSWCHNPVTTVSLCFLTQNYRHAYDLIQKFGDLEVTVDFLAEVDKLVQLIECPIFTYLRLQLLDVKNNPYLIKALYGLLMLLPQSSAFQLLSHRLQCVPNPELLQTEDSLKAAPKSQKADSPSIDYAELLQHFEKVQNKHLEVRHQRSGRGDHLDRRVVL
T1 sequence (Q9Y2I7 2-2098 partner): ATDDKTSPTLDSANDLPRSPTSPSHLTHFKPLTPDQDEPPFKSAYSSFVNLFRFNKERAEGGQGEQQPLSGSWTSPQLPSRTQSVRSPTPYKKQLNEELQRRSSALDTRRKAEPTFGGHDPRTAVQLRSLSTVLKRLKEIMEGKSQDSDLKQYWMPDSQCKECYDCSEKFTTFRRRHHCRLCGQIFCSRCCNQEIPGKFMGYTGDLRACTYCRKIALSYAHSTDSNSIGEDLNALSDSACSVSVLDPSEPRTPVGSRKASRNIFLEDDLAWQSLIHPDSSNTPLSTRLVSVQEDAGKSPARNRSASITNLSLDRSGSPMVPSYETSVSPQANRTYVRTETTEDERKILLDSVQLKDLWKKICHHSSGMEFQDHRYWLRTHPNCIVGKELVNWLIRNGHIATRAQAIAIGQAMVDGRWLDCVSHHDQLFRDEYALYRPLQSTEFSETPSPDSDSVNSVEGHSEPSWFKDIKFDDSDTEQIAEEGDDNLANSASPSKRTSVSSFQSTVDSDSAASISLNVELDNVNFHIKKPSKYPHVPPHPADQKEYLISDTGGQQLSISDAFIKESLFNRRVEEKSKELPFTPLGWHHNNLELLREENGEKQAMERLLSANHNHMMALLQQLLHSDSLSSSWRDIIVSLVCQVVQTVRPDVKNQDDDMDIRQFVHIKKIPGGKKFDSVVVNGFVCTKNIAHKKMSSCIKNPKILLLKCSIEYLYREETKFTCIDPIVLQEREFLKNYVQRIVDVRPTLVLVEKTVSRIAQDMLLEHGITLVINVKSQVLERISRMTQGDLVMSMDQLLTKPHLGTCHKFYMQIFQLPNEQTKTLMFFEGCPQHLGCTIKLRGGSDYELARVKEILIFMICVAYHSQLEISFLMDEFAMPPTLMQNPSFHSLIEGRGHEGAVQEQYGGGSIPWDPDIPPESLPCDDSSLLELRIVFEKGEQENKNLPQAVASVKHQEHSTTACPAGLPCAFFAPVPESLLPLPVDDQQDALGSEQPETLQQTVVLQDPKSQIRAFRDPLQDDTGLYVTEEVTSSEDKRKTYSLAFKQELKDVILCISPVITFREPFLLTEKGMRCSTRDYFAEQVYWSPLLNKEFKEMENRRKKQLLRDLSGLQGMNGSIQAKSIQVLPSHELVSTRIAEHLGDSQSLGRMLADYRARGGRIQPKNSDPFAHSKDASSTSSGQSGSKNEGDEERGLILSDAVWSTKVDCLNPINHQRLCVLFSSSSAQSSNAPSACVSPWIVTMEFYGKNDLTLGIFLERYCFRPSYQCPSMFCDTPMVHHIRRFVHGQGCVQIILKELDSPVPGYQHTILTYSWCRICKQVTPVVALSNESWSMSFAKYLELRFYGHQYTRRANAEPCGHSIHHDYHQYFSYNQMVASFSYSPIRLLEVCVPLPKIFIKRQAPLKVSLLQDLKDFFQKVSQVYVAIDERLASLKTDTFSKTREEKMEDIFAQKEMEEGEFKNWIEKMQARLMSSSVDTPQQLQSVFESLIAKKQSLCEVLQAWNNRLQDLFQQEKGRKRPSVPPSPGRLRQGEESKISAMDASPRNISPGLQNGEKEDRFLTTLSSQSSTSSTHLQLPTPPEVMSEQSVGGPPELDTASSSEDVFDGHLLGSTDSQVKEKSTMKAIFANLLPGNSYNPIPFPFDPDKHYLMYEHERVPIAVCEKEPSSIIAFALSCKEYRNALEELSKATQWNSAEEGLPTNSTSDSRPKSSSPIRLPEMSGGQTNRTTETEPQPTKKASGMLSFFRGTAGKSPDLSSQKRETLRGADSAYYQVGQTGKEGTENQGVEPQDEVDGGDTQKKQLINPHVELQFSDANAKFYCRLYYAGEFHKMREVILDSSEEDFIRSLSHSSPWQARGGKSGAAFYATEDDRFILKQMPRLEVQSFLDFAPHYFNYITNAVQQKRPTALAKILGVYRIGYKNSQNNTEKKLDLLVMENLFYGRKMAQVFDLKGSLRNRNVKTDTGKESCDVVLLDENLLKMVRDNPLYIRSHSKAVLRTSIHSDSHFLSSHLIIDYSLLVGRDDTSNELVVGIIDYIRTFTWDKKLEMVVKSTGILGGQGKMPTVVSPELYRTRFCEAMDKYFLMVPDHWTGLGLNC

Cc1cccc(/C=N/Nc2cc(N3CCOCC3)nc(OCCc3ccccn3)n2)c1 [LAM-002]
IC50 [1]: 60 nM
IC50 [2]: 44 nM
IC50 [3]: 11 nM
IC50 [4]: 71 nM
IC50 [5]: 27 nM
IC50 [6]: 9 nM
IC50 [7]: 32 nM
IC50 [8]: 8 nM

Cc1cccc(/C=N/Nc2cc(N3CCOCC3)nc(OCCc3ccccn3)n2)c1 [apilimod]
log (FC) ([9]; capture compound 0.1 μM): 6.2
log (FC) ([9]; capture compound 0.5 μM): 5.6
log (FC) ([9]; capture compound 1.0 μM): Inf.
log (FC) ([9]; capture compound 2.0 μM): 3.9
IC50 [10]: 250 to 300 nM
autophagy (autophagic vacuoles) [11]: induces autophagy in a dose-dependent manner
cytotoxicity [12]: not cytotoxic
sensitivity to apilimod-induced cytotoxicity [13]: not sensitive
synovial IL-12 and IL-23 expression [14]: failed to alter synovial IL-12 and IL-23 expression
cytotoxicity [15]: not cytotoxic
cytotoxicity [16]: not cytotoxic
cytotoxicity [17]: not cytotoxic
IC50 [18]: 28.8 nM
IC50 [19]: 70.7 nM
IC50 [20]: 132 nM
IC50 [21]: 13.7 nM
IC50 [22]: 16.1 nM
IC50 [23]: 19.7 nM
IC50 [24]: 20.1 nM
IC50 [25]: 117 nM
cytotoxicity [26]: not cytotoxic
